Test [1] is described as follows: microbe, parasite or virus in culture. Type of test: functional. Conditions: Mycobacterium tuberculosis.
A short description of test [2]: Luminescence Cell-Based Dose Confirmation HTS to Identify Inhibitors of Platelet Dense Granule Release. [Related pubchem assays: 1663 (Primary HTS), 1678 (Summary of Project)]. Format: functional.
The target of test [3] is Luciferin 4-monooxygenase (Photinus pyralis, UniProt P08659). Kind of test: firefly luciferase enzyme inhibitors, dose response, biochemical, luminescence (AID 1891).
Chain of Luciferin 4-monooxygenase (P08659 whole entry): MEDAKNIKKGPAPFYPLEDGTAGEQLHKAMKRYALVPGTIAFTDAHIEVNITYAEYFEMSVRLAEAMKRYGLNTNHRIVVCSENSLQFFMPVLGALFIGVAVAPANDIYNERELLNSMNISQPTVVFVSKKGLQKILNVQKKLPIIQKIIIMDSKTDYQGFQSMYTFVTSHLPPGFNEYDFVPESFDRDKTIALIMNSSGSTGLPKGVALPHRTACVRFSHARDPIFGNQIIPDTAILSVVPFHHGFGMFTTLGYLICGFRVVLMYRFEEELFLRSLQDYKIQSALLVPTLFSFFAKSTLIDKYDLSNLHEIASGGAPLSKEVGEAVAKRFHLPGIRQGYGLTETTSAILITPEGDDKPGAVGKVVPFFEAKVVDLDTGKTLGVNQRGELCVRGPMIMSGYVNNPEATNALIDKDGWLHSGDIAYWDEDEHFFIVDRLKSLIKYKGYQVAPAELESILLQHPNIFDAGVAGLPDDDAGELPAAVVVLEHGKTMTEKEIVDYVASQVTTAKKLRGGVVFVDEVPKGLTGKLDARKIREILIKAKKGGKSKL
Test [4] deals with T1, Calpain-2 catalytic subunit (Sus scrofa, UniProt P43367).
T1 sequence (P43367 whole entry): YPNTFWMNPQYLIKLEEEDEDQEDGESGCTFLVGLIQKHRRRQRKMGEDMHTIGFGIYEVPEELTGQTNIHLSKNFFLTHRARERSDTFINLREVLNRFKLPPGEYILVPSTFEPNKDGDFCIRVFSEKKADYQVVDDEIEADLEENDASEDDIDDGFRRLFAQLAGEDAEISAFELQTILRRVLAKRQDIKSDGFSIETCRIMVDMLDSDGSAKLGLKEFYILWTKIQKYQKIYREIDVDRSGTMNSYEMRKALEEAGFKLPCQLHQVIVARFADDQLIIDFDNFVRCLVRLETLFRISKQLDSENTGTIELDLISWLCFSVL
Kind of test: pig calpain II inhibitor potency, dose response, biochemical, fluorogenic peptide substrate (AID 1420). Format: functional.

Test [5] concerns the target T2, Corticotropin-releasing factor receptor 2/Corticotropin-releasing factor-binding protein (Homo sapiens, UniProt P24387+Q13324).
T2 sequence (Q13324 whole entry): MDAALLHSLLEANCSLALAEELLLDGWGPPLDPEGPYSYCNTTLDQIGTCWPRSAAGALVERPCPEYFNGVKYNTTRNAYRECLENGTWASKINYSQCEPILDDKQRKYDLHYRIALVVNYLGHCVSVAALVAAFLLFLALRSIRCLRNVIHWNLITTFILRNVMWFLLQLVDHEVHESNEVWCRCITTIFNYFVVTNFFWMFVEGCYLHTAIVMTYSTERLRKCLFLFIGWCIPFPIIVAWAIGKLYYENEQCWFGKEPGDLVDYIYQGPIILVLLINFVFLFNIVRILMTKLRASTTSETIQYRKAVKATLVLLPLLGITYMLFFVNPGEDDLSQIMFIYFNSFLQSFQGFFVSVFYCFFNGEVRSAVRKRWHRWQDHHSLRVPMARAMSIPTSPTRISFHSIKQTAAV
T2 sequence (P24387 whole entry): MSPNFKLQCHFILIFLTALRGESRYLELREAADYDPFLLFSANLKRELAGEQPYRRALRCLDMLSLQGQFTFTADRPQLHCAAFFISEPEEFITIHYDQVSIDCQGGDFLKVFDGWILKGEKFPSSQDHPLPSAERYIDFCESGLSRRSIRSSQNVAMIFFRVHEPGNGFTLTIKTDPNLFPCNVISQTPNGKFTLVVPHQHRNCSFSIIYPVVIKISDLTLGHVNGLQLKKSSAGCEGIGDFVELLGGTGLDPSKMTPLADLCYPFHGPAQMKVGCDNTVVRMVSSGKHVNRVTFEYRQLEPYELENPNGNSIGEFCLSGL
Briefly: activators of CRF receptor 2 with binding protein – uHTS hits, confirmation (AID 602473). Type of test: functional. The note with it: read-out: EC50_Mean.

In test [6] the target is T2, Corticotropin-releasing factor receptor 2/Corticotropin-releasing factor-binding protein. Briefly: Dose Response confirmation of uHTS hits for small molecule antagonists of the CRF-binding protein and CRF-R2 receptor complex. Conditions: read-out: IC50_Mean. Type of test: functional.
A short description of test [7]: cytotoxicity toward NIH3T3 fibroblasts, dose response, counter-screen, cell-based, ATP luminescence, mouse fibroblasts (AID 2010).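 Note: cells exposed to compound for about 90 hours before reading.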 Format: functional. (Counterscreens check selectivity or assay interference.)
A short description of test [8]: inhibitors of intracellular T. cruzi replication, confirmation, NIH3T3 host cells, beta-gal luminescence (AID 2044).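 Note: intracellular parasites grown in NIH/3T3 mouse fibroblasts as host cells; luminescent beta-galactosidase reporter signal from transgenic T. cruzi replicating inside host cells; inhibitors lower the luminescence signal.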 Format: functional, cell-based.
Test [9] addresses T3, Heat shock factor protein 1 (Mus musculus, UniProt P38532).
T3 sequence (P38532 whole entry): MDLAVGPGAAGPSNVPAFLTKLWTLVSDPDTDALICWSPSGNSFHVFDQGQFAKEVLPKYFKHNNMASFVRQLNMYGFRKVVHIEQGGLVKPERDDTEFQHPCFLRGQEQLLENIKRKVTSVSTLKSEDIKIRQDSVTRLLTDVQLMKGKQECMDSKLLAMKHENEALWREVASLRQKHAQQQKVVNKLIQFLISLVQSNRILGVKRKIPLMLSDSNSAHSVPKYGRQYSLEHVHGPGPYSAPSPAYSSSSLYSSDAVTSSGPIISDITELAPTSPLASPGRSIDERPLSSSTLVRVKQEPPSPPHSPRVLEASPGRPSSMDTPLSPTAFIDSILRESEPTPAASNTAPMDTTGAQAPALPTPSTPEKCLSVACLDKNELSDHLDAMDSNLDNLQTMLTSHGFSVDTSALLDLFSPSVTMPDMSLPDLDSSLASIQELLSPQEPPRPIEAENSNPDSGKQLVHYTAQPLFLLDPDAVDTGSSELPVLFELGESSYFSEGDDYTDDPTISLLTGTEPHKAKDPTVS
Kind of test: HSF1 potentiators in luciferase reporter cells, confirmation, cell-based, NIH3T3, luminescence, dose retest (AID 435004).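 Note: stress induced by proteasome inhibitor MG132 added 30 min after compound; luciferase reporter driven by HSF1 response element in NIH3T3 cells; actives raise luminescence as potentiators of the MG132 stress response.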 Format: functional. On the technique in general: In a reporter assay the amount or activity of a reporter protein is the signal.

Another test is described as follows: cells. Format: functional.
The next test has as its target Cytochrome P450 2C19 (Homo sapiens, UniProt P33261). Briefly: Cytochrome panel assay with activity outcomes. Panel member name: p450-cyp2c19 Compounds with AC50 equal or less than 10 uM are considered active. Type of test: functional.
For another test, the system named is H4. Kind of test: Luminescence Cell-Based Dose Response HTS to Identify Activators of 5'UTR Stem-Loop Driven Prion Protein mRNA Translation in H4 Neuroglioblastoma Cells. [Related pubchem assays: 1829 (Project Summary), 1814 (Primary HTS)]. Format: functional. The note with it: Homo sapiens.
Test [10] can be described thus: Luminescence Cell-Based Dose Response HTS to Identify Activators of Luciferase Translation or Activity in H4 […] Cells. [Related pubchem assays: 1829 (Project Summary), 1814 (Primary HTS)]. Type of test: functional.
Test [11] is described as follows: Luminescence Cell-Based Dose Confirmation HTS to Identify Activators of 5'UTR Stem-Loop Driven Alpha-Synuclein mRNA Translation in H4 Neuroglioblastoma Cells. [Related pubchem assays: 1829 (Project Summary), 1814 (Primary HTS)]. Type of test: functional.
Test [12] has as its target T3, Heat shock factor protein 1. Kind of test: inhibition of MG132-induced HSE-luciferase signal, confirmation, cell-based, NIH3T3, luminescence, dose retest (AID 2382).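 Note: NIH3T3 fibroblasts with HSF1-driven luciferase reporter stressed by proteasome inhibitor MG132; luminescence from HSF1-driven luciferase expression after 8 hours of MG132 stress.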 Format: functional.

Here are results for 42 compounds from ChEMBL document CHEMBL1201862, “PubChem BioAssay data set” (2004).

A word on the AC50: it is the midpoint of the concentration-response curve, whichever way the signal moves.

Calls of active or inactive are those of the source. Some results are limits rather than exact numbers.

Chain of Cytochrome P450 2C19 (P33261 whole entry): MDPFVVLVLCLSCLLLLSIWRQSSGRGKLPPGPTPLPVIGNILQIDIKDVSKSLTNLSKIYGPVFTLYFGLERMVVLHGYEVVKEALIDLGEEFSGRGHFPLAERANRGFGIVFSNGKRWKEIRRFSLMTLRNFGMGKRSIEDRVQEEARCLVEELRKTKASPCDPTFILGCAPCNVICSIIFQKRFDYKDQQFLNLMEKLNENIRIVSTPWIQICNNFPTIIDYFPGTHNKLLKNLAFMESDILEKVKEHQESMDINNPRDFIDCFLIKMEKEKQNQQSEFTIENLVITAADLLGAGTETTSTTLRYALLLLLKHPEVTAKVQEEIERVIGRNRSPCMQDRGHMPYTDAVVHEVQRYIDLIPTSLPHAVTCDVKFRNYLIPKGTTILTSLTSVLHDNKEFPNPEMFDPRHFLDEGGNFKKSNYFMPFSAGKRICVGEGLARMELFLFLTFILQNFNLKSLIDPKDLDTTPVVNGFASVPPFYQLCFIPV

With `CCCC1CC(C)(c2csc(Nc3ccc(OCC)cc3)n2)OC1=O` (configuration not stated), the CC50 in test [1] was > 40 µM (active).
As to `C(=N\c1nc2ccccc2[nH]1)/c1cccs1`, the EC50 in [2] is > 112 µM (not active); in test [3], 16.2 µM (active).
Take `NC(=S)N/N=C/c1coc2c(ccc3ccccc32)c1=O`: in test [4], the IC50 was 24.6 µM (not active).
The same measure, in the same setting: next, `CCCc1cc(-c2nnc(S)n2Cc2ccccc2)cs1`: 22.1 µM (not active).
Take `COc1cc2cnc(-c3ccccc3)c(-c3ccc(C(F)(F)F)cc3)c2cc1OC`: the CC50 in test [1] is > 40 µM (active).
As to `COc1ccc(CC(=O)Nc2cccc(-c3cn4ccccc4n3)c2)cc1`, the EC50 in [2] and in [3] was > 112 µM (not active) each time.
Regarding `Cc1c(NC(=O)c2c(N)n(-c3ccccc3)c3nc4ccccc4nc23)c(=O)n(-c2ccccc2)n1C`, the EC50 in [2] and in [3] was > 112 µM (not active) each time.
In the case of `O=C1CCC(C(=O)Nc2ccccc2N2CCOCC2)=NN1`, in test [5], the EC50 is > 53 µM (inactive). The IC50 in [6] is > 47.1 µM (inactive).
Take `CCN(CC)c1nc(NN)nc(Nc2ccc(C)c(Cl)c2)n1`: the CC50 in test [1] is 31.8 µM (active).
Take `C=CCN(C(=O)CSc1nc2c(sc3ccccc32)c(=O)n1CCN(CC)CC)c1ccccc1`: the CC50 in [1] was 31.9 µM (active). For the same compound, the EC50 is 11 µM (active) in [7] and 606 nM (active) in [8].
Turning to `O=C(c1ccccc1Br)N1CCN(c2ccccc2)CC1`, the EC50 in [9] was > 260 µM (inactive).
Consider `O=C(Cn1cc(C(=O)c2ccco2)c2ccccc21)Nc1ccccc1`, for which the IC50 in [4] was 3.26 µM (not active).
Turning to `CCSc1nnc(NC(=O)Cc2cccc(OC)c2)s1`, the IC50 in test [4] was 2.28 µM (not active).
As to `CCOC(=O)N1CCN(C(=O)Cn2cnc3ccccc3c2=O)CC1`, the EC50 in [5] is > 53 µM (inactive). Further, the IC50 in test [6] is > 47.1 µM (inactive).
`CCOC(=O)Cn1/c(=N/C(=O)CSC(C)=O)sc2ccccc21`: the EC50 in test [2] and in test [3] was > 112 µM (not active) in each case.
With `CC(=O)c1cccc(NC(=O)c2c(F)c(F)c(F)c(F)c2F)c1`, the IC50 in [4] is reported as 17.2 µM (not active).
`Cc1cccc(NC(=O)CN2CCC(C(=O)c3ccc4c(c3)OCCO4)CC2)c1`: the EC50 in test [2] and in test [3] was > 112 µM (not active) in each case.
`COc1ccc(Cc2nnc(NC(=O)c3c(-c4ccccc4)noc3C)s2)cc1`: the EC50 in test [2] and in test [3] was > 112 µM (not active) throughout.
With `COc1ccc(C2=NN(C(=O)CSC3=NN4CCCC(=O)N=C4S3)C(c3cccc(OC)c3OC)C2)cc1` (configuration not stated), the EC50 in test [2] and in test [3] was > 112 µM (not active) throughout.
As to `Cn1c(CNc2cccc(Cl)c2)nnc1SCC#N`, the EC50 in test [9] was > 260 µM (inactive).
Take `CCOC(=O)c1c(COc2ccccc2)oc2ccc(O)cc12`: the EC50 in test [9] is > 260 µM (inactive).
As for `Cc1ccccc1Nc1nc(N)nc(CSc2ccccc2)n1`, the EC50 in [9] is 19.1 µM (active).
On to `COC(=O)COc1ccc2c(-c3cccc([N+](=O)[O-])c3)cc(=O)oc2c1`, for which the IC50 in “cells” is 2.9 µM (active). For the same compound, the AC50 on Cytochrome P450 2C19 is 251 nM (inconclusive).
Regarding `Oc1ccc(N=Nc2n[nH]c(-c3ccc(Cl)cc3)n2)cc1`, in [1], the CC50 is 28.1 µM (active). Also, the EC50 in the test on H4 is > 120 µM (not active); in test [10], 8.25 µM (active); in [11], > 120 µM (not active).
As for `COc1cc(OC)nc(Oc2ccccc2C(=O)Oc2ccc(Cl)cc2)n1`, in [1], the CC50 was > 40 µM (active). Moreover, the EC50 in test [12] is listed as > 195 µM (not active).
With `CCN(CC)c1ccc(/C=N\NC(=O)c2cccc3cc[nH]c23)cc1`, the EC50 in test [5] was > 53 µM (inactive). In addition, in [6], the IC50 was > 47.1 µM (inactive).
Take `NS(=O)(=O)c1ccc(NC(=O)COC(=O)C23CC4CC(CC(C4)C2)C3)cc1`: the IC50 in test [4] is on record as 3.33 µM (not active).
Take `O=C(Nc1nccs1)C1CCN(S(=O)(=O)c2ccc(Cl)c(C(F)(F)F)c2)CC1`: the EC50 in test [2] and in test [3] was > 112 µM (not active) each time.
For the compound `COC(=O)/C=c1/s/c(=C(\C#N)C(=O)NCc2ccco2)n(-c2ccccc2)c1=O`, the EC50 in [5] was > 53 µM (inactive). For the same compound, the IC50 in [6] is > 47.1 µM (inactive).
For `COc1ccc(CN(CCc2c[nH]c3ccccc23)Cc2ccc(OC)cc2)cc1`, the EC50 in test [5] is > 53 µM (inactive). Besides, the IC50 in test [6] was > 47.1 µM (inactive).
In the case of `Cc1ccc(C(=O)NCCCNc2ccccc2[N+](=O)[O-])cc1`, the IC50 in [4] is on record as 25.2 µM (not active).
The same measure, in the same setting: next, `COc1ccc(/C=C/C(=O)NC(=S)Nc2cc3oc4ccccc4c3cc2OC)cc1`: > 50 µM (not active).
For `CC1(C)Cc2c(sc3[nH]c(=O)n(CC(=O)NCC4CCCO4)c(=O)c23)CO1` (configuration not stated), the EC50 in [5] is > 53 µM (inactive). Besides, the IC50 in [6] is > 47.1 µM (inactive).
With `O=C(NCc1cccs1)c1ccc(C[S+]([O-])Cc2cccc(Cl)c2)o1` (configuration not stated), the EC50 in [5] was > 53 µM (inactive). In addition, the IC50 in [6] is > 47.1 µM (inactive).
Turning to `CSc1nc2sc(-c3ccccc3)cc2c(=O)n1N`, the figures for the EC50 in [2] and in test [3] were < 0.701 µM (active) and 0.191 µM (active), respectively.
On to `CSC(=S)N/N=C/c1ccccc1`, for which the CC50 in [1] was > 40 µM (active).
Regarding `Cc1ccc(C)n1-c1ccc(C(=O)NN=C2CCCC2)cc1`, the EC50 in test [2] and in test [3] was > 112 µM (not active) throughout.
With `Nc1c(C(=O)OCC2CCCO2)c2nc3ccccc3nc2n1C1CCCC1` (configuration not stated), in [1], the CC50 is 38.3 µM (active).
For the compound `CCc1cc(C(=O)NNC(=O)CCl)sc1C`, the CC50 in test [1] was 23.8 µM (active).
As to `COc1ccccc1N1CCN(CC(=O)Nc2c(C)n[nH]c2C)CC1`, the EC50 in [5] is > 53 µM (inactive). In addition, the IC50 in test [6] was > 47.1 µM (inactive).
In the case of `Cc1nc(NC(=O)c2ccccc2)sc1C1(C)CC(c2ccc(OC(F)(F)F)cc2)=NO1` (configuration not stated), the CC50 in test [1] is > 40 µM (active).
Take `COc1ccc(C(=N)NOC(=O)Cc2ccccc2[N+](=O)[O-])cc1`: the IC50 in [4] is 10.1 µM (not active).
